According to ChEMBL document CHEMBL4665643 (Bioorg Med Chem Lett, 2019):

Tests used:
[1] = biological target: Serine/threonine-protein kinase mTOR (Homo sapiens) (UniProt P42345); test: Inhibition of recombinant human GST-tagged mTOR (1360 to 2549 residues) expressed in Escherichia coli expression system using Ser/Thr 11 as substrate at 0.1 uM incubated for 60 mins by Z'-Lyte assay relative to control
[2] = in vitro; conditions: dog, MDCK
Description: Efflux ratio of apparent permeability basolateral to apical over apical to basolateral side in MDCK cells at 10 uM incubated upto 180 mins by LC/MS-MS analysis

[3] = biological target: Calcium/calmodulin-dependent protein kinase type 1D (Homo sapiens) (UniProt Q8IU85); test: Inhibition of recombinant human His-tagged full length CAMK1delta expressed in baculovirus expression system using Ser/Thr 25 as substrate at 0.1 uM incubated for 60 mins by Z'-Lyte assay relative to control
Calcium/calmodulin-dependent protein kinase type 1D (Homo sapiens), sequence (Q8IU85 whole entry, looked up): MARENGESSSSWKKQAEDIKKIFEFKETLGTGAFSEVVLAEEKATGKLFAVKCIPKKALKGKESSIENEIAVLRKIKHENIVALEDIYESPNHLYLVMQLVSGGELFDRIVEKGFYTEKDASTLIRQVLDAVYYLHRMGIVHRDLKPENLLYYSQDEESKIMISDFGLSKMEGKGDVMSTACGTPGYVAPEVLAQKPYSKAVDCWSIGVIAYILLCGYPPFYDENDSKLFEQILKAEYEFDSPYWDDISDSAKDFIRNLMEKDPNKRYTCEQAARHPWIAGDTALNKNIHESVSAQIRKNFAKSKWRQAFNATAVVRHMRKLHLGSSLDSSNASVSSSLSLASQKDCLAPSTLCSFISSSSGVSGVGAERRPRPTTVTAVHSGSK

[4] = biological target: T1, Aurora kinase A (Homo sapiens) (UniProt O14965); test: Inhibition of recombinant human His-tagged full length Aurora A expressed in baculovirus expression system using Ser/Thr 01 as substrate at 0.1 uM incubated for 60 mins by Z'-Lyte assay relative to control
T1 sequence (whole entry): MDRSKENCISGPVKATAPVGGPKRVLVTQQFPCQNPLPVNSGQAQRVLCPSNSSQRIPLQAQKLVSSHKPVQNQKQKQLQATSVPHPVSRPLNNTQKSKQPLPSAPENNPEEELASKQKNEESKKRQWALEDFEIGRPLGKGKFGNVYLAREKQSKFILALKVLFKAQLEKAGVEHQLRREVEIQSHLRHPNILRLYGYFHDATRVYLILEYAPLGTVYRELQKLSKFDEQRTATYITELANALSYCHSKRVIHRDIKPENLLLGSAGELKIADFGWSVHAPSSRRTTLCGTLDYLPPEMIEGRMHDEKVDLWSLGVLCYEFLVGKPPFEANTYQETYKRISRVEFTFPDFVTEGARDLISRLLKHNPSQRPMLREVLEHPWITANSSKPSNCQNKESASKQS

[5] = species: Homo sapiens
[6] = Metabolic stability in human liver microsomes assessed as intrinsic clearance at 1 uM measured upto 60 mins by LC-MS/MS analysis; type: ADME, Microsome; conditions: read-out: CLH
[7] = biological target: Non-receptor tyrosine-protein kinase TYK2 (Homo sapiens) (UniProt P29597); test: Inhibition of recombinant human N-terminal GST-tagged TYK2 (833 to 1187 residues) expressed in baculovirus expression system using Tyr 03 as substrate at 0.1 uM incubated for 60 mins by Z'-Lyte assay relative to control
Non-receptor tyrosine-protein kinase TYK2 (Homo sapiens), sequence (P29597 whole entry, the tested form may be a part): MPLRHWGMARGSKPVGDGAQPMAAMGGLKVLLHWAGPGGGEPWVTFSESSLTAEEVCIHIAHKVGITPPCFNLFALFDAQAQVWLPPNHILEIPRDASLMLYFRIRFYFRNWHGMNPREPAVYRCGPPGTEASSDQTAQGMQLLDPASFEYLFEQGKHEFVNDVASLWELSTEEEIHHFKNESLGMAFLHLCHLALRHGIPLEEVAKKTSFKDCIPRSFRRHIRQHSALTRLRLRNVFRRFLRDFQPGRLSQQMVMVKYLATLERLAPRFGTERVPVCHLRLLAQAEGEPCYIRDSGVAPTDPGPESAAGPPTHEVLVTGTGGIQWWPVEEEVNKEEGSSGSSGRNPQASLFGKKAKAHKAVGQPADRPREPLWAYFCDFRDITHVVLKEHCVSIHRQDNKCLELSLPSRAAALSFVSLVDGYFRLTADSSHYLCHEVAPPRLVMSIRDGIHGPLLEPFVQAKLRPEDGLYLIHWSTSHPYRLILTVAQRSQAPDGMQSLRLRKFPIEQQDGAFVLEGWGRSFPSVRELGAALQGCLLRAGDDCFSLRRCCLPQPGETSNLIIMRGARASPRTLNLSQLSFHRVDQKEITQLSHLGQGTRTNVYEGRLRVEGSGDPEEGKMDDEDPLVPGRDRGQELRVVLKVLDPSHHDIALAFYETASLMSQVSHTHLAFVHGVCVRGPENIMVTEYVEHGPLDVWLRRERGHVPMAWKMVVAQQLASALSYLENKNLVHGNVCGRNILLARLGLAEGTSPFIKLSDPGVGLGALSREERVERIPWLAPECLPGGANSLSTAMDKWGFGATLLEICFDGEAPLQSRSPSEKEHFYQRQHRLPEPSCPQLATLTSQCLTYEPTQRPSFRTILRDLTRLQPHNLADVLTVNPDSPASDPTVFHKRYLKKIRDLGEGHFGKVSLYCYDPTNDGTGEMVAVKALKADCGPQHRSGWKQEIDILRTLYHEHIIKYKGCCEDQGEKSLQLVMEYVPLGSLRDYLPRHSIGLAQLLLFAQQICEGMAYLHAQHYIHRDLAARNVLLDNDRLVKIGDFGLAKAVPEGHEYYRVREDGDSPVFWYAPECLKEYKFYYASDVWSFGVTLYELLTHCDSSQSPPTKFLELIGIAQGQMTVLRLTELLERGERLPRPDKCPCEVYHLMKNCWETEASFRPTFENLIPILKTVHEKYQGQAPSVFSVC

[8] = biological target: Tyrosine-protein kinase Fyn (Homo sapiens) (UniProt P06241); test: Inhibition of recombinant human C-terminal His-tagged full length FYN expressed in baculovirus expression system using Tyr 02 as substrate at 0.1 uM incubated for 60 mins by Z'-Lyte assay relative to control
Tyrosine-protein kinase Fyn (Homo sapiens), sequence (P06241 2-537 limits assumed): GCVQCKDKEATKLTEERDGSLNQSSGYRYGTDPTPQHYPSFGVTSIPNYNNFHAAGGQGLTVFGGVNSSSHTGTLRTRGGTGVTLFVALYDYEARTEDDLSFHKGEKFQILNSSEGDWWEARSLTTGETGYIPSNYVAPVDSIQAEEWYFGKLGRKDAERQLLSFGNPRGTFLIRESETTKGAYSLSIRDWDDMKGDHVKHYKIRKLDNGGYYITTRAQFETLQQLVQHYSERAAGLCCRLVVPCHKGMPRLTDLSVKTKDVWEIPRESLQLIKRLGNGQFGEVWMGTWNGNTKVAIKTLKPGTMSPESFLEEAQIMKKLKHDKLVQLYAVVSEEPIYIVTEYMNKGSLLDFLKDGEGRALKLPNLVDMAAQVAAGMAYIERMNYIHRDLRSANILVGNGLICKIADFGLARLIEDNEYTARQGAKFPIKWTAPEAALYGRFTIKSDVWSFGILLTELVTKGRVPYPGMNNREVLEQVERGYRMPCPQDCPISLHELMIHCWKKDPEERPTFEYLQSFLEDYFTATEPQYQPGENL

[9] = biological target: Casein kinase I isoform epsilon (Homo sapiens) (UniProt P49674); test: Inhibition of recombinant human His-tagged full length CK1epsilon expressed in baculovirus expression system using Ser/Thr 11 as substrate at 0.1 uM incubated for 60 mins by Z'-Lyte assay relative to control
Casein kinase I isoform epsilon (Homo sapiens), sequence (P49674 whole entry, looked up, canonical isoform): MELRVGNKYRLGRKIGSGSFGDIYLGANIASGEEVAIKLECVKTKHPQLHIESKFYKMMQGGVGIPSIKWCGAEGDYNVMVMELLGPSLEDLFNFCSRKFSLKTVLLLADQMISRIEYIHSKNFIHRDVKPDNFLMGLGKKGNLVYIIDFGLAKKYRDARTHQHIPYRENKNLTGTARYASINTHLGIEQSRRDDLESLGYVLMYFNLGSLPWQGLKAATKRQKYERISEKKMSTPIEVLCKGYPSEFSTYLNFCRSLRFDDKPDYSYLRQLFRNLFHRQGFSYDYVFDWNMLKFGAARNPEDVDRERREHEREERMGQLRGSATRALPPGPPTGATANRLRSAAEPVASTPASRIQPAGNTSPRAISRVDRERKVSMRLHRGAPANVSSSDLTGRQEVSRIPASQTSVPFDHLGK

[10] = biological target: Dual specificity mitogen-activated protein kinase kinase 1 (Homo sapiens) (UniProt Q02750); test: Inhibition of recombinant human His-tagged full length MEK1 expressed in baculovirus expression system using Ser/Thr 03 as substrate at 0.1 uM incubated for 60 mins by Z'-lyte assay relative to control
Dual specificity mitogen-activated protein kinase kinase 1 (Homo sapiens), sequence (Q02750 whole entry): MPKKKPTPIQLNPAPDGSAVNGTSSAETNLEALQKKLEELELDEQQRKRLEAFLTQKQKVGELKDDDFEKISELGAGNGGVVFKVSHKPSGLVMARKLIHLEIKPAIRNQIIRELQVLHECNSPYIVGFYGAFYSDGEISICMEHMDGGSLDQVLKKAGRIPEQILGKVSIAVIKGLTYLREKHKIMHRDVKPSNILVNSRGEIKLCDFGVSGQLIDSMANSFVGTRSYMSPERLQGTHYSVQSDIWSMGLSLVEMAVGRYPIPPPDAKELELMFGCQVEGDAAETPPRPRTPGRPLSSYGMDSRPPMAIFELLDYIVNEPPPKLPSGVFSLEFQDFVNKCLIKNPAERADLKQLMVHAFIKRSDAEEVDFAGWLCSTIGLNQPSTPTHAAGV

[11] = biological target: T2, Mitogen-activated protein kinase kinase kinase 5 (Homo sapiens) (UniProt Q99683); test: Inhibition of tracer 236 binding to recombinant human GST-tagged full length ASK1 expressed in baculovirus expression system at 0.1 uM incubated for 60 mins by Lanthascreen assay relative to control
T2 sequence (whole entry): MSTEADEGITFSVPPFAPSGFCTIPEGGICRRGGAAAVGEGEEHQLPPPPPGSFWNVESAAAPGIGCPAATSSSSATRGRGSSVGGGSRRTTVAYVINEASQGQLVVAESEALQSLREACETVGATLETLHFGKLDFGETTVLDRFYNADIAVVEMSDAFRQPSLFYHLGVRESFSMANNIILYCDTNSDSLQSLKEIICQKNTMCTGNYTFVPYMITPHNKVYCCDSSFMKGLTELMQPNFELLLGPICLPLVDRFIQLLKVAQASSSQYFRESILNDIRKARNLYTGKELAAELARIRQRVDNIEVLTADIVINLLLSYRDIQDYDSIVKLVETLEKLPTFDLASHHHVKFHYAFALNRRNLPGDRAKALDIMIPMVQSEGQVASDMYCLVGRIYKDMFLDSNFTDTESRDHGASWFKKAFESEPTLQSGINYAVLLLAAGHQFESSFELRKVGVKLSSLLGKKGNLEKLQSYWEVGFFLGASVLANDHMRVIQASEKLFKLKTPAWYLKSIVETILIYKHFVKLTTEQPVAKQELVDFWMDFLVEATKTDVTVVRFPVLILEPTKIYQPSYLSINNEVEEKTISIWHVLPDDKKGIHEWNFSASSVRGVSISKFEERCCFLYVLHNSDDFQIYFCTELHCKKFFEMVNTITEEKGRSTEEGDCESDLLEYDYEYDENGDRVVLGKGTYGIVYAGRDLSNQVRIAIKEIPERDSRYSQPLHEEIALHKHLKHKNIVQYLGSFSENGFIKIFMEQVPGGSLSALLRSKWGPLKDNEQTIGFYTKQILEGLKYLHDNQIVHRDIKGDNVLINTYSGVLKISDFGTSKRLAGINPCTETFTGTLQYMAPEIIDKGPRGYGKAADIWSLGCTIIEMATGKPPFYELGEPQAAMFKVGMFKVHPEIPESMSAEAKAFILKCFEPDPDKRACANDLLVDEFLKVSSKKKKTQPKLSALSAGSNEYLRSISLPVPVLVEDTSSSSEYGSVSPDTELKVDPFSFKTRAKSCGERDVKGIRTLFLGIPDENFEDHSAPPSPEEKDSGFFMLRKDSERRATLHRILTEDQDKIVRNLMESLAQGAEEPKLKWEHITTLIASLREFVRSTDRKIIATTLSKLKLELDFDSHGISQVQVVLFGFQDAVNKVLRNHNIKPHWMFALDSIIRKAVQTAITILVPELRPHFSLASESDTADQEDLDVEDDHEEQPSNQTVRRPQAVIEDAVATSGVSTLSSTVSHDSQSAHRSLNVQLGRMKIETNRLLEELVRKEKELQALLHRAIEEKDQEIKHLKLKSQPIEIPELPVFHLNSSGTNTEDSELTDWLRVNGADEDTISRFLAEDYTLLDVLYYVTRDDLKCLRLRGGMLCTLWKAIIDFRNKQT

Row | SMILES | inhibition [1] | efflux ratio at 3 h, 10 µM [2] | inhibition [3] | inhibition [4] | Ratio IC50 [5] | CLint scaled at 1 µM [6] | inhibition [7] | inhibition [8] | inhibition [9] | inhibition [10] | inhibition [11]
1 | O=C(Nc1c[nH]nc1-c1cc2ccccc2cc1OC(F)F)c1cnn2cccnc12 | 5% | 1.2 | 15% | 24% | 83 | 17 mL/min/kg | 95% | 78% | 6% | 0% | -2%
2 | O=C(Nc1c[nH]nc1-c1cc(Cl)ccc1OC(F)F)c1cnn2cccnc12 | 1% | 1.1 | 8% | 20% | 15 | 14 mL/min/kg | 100% | 95% | 5% | -8% | 4%
3 | Cn1cc(NC(=O)c2cnn3cccnc23)c(-c2cc(Cl)ccc2OC(F)F)n1 | -3% | 0.55 | 6% | 13% | 47 | 15 mL/min/kg | 98% | 89% | -1% | 0% | 2%
